From patent US11337922B2, “Lipid particle formulations for delivery of RNA and water-soluble therapeutically effective compounds to a target cell” (BioNTech RNA Pharmaceuticals GmbH, priority 2015, dated 2022) come the findings set out here.

This experiment has as its system Vγ9Vδ2 T cells. In words: γ9δ2 T cell proliferation/expansion after coculture of ZA-loaded iDCs with PBLs. The experiment is classed as cell-based, human. Particulars: 7-day coculture of ZA-loaded iDCs with PBLs. The protocol:
To check the functionality of the retained compound, ZA, the expansion of γ9δ2 T cells was evaluated after cocultivation of ZA-loaded iDCs with cryopreserved PBLs.
For evaluation of ex vivo frequency of γ9δ2 T cells freshly isolated PBMCs were stained with anti-CD3, anti-TCR-Vδ2 mABs and analysed via flow cytometry. Therefore, iDCs have been incubated as indicated for 24 h in standard medium (1×10^6 cells/mL) containing 5 μM ZA.
After loading with ZA, iDCs have been centrifuged and washed with PBS. The coculture of iDCs with PBLs was setup in a ratio of 20 (iDCs): γ9δ2 T cells ex vivo. The medium was supplemented with 10 U/mL IL-2 (Proleukin). After 7-day incubation cells were harvested, washed and stained with anti-CD3, anti-TCR-Vδ2 mABs to evaluate frequency of γ9δ2 T cells and their expansion via flow cytometry. For analysis the expansion rate was determined dividing whole cell amount of γ9δ2 T cells before or after 7-day-cultivation.

With `O=P(O)(O)C(O)(Cn1ccnc1)P(=O)(O)O` [free ZA, zoledronic acid], the “expansion rate of Vγ9δ2 T cells” value is recorded as “about 15 fold”.
